Results published in PMC6996867 (Journal of Medicinal Chemistry, 2010).

How the values were obtained:
[1] = test system: P. berghei strain GFP ANKA; assay: In vivo antimalarial activity, P. berghei infected malaria mouse model; parameters: species or system Plasmodium berghei (female NMRI mice)
[2] = In vivo pharmacokinetic studies in mice
pKa = format: physicochemical

pKa (pKa; pKa1, first pKa)	pKa (pKa; pKa2, second pKa)	Structure (SMILES)	full cure (no parasites at day 30) ([1]; 3 × 30 mg/kg oral doses)	toxicity or behavioral changes after drug administration ([1]; treated mice, any dosing regimen)	total systemic clearance relative to hepatic blood flow ([2]; mice, intravenous administration) [% hepatic blood flow]	exposure (AUC∞) greater than 9a ([2]; mice, oral, 20a vs 9a) [fold]	half-life ([2]; mouse, plasma) [h]
4.8		C[C@H]1Cc2c([nH]c3ccc(F)cc23)[C@@]2(N1)C(=O)Nc1ccc(Cl)cc12 [Compound 17a, (1R,3S)-5′-Chloro-6-fluoro-3-methyl-2,3,4,9-tetrahydrospiro[β-carboline-1,3′-indol]-2′(1′H)-one]					
5.2	10.6	C[C@H]1Cc2c([nH]c3cc(Cl)ccc23)[C@@]2(N1)C(=O)Nc1ccc(Cl)cc12 [Compound 18a, (1R,3S)-5′,7-Dichloro-3-methyl-2,3,4,9-tetrahydrospiro[β-carboline-1,3′-indol]-2′(1′H)-one]					
5.2		C[C@H]1CCc2c([nH]c3ccccc23)[C@@]2(N1)C(=O)Nc1ccc(Br)cc12 [Compound 1a, (1R,3S)-5′-Bromo-3-methyl-3,4,5,10-tetrahydro-2H-spiro[azepino[3,4-b]indole-1,3′-indol]-2′(1′H)-one]					

Structure (SMILES)	pKa (pKa; pKa1, first pKa)	pKa (pKa; pKa2, second pKa)	full cure (no parasites at day 30) ([1]; 3 × 30 mg/kg oral doses)	toxicity or behavioral changes after drug administration ([1]; treated mice, any dosing regimen)	total systemic clearance relative to hepatic blood flow ([2]; mice, intravenous administration) [% hepatic blood flow]	exposure (AUC∞) greater than 9a ([2]; mice, oral, 20a vs 9a) [fold]	half-life ([2]; mouse, plasma) [h]
C[C@H]1Cc2c([nH]c3cc(F)c(F)cc23)[C@@]2(N1)C(=O)Nc1ccc(Cl)cc12 [Compound 20a, (1R,3S)-5′-Chloro-6,7-difluoro-3-methyl-2,3,4,9-tetrahydrospiro[β-carboline-1,3′-indol]-2′(1′H)-one]	4.9		four out of five mice	neither toxicity nor behavioral changes	~10	18	3
